In patent US12091405B2, “Substituted pyrazole compounds as indoleamine 2,3-dioxygenase inhibitors” (Merck Sharp & Dohme LLC, priority 2018, dated 2024):
pIC50: −log10 of the molar value.

What was measured:
IDO1 [1] = target: T1, IDO1 (Homo sapiens, UniProt P14902); test: IDO1 Cellular Assay in HeLa Cells Stimulated with IFNγ; type: cell-based; conditions: IFNγ 100 ng/mL, 300 uM L-tryptophan, about 48 hours, fluorescence readout, read-out: IDO1 HELA Cell Assay, IC50
IDO1 [2] = target: T1, IDO1; test: IDO1 Human Whole Blood Assay; type: cell-based; design: Human whole blood was drawn in sodium heparin coated tubes from healthy internal donors; from tissue; host or cells: human whole blood from healthy donors, stimulated with LPS and IFNγ; conditions: LPS and IFNγ 100 ng/mL, overnight (18 h), kynurenine by LC/MS/MS
Method: IDO1 Human Whole Blood Assay
Compounds to be tested were serially diluted in ten 3-fold steps in DMSO starting from 10 mM. 3 μL of compound dilutions or DMSO alone were then dispensed from the dilution plate into a polypropylene 96-well assay plate containing 97 μL of RPMI medium using an Echo 555 acoustic liquid handler (Labcyte). LPS and IFNγ was prepared in RPMI medium to a 10× of final conc. (1000 ng/mL), final concentration is 100 ng/mL.
Human whole blood was drawn in sodium heparin coated tubes from healthy internal donors. 240 μL of blood was transferred to each of the wells of a v-bottom 96 well plate. 30 μL of compound was transferred from intermediate dilution plate, and incubated for 15 min. 30 μL from stimulants was then transferred to blood and mixed thoroughly. Plate was covered with breathable membrane and incubated at 37° C. for overnight (18 h).
On day 2, isotope labeled standard solutions of kynurenine and tryptophan was made in water at 10× concentration and 30 μL was added to the blood at 3 μM final concentration. The assay plates were centrifuged at 300×G for 10 min with no brake to separate plasma from red blood cells. 60 μL of plasma samples was removed without disturbing red blood cells. Plasma was diluted with RPMI in 1:1 ratio and proteins were precipitated out with two volumes of Acetonitrile. The plates were centrifuged at 4000×G for 60 min. 20 μL of supernatant was carefully transferred to a 384 well plate containing 40 μL of 0.1% formic acid in water and analyzed by LC/MS/MS.
LC/MS/MS analyses were performed using Thermo Fisher's LX4-TSQ Quantum Ultra system. This system consists of four Agilent binary high-performance liquid chromatography (HPLC) pumps and a TSQ Quantum Ultra triple quadrupole MS/MS instrument. For each sample, 5 μL were injected onto an Atlantis T3 column (2.1 mm×150 mm, 3 μm particle size) from Waters. The mobile phase gradient pumped at 0.8 mL/min was used to elute the analytes from the column at 25 EC. The elution started at 0% B increasing linearly to 25% B at 6.5 min, holding at 25% for 1 min, re-equilibrating to 10 min. Mobile phase A consisted of 0.1% formic acid in water. Mobile phase B consisted of 0.1% of formic acid in acetonitrile. Data were acquired in positive mode using a HESI interface. The operational parameters for the TSQ Quantum Ultra instrument were a spray voltage of 4000 V, capillary temperature of 380° C., vaporizer temperature 400° C., shealth gas 60 arbitrary units, Aux gas 20 arbitrary units, tube lens 85 and collision gas 1.2 mTorr. SRM chromatograms of kynurenine (Qi: 209.2>Q3:94.0) and internal standard (Qi: 215.3>Q3:98.2) were collected for 90 sec. The peak area was integrated by Xcalibur Quan software. The ratios between the kynurenine generated in the reaction and 2D6-Kynurenine spiked-in internal standard were used to generate percentage inhibition and IC50 values. Compounds were titrated and IC50's were calculated by 4 parameter sigmoidal curve fitting formula.
The biological activity data of selective compounds using the IDO1 human whole blood assay described above are summarized in the table below.

T1 sequence (P14902 whole entry): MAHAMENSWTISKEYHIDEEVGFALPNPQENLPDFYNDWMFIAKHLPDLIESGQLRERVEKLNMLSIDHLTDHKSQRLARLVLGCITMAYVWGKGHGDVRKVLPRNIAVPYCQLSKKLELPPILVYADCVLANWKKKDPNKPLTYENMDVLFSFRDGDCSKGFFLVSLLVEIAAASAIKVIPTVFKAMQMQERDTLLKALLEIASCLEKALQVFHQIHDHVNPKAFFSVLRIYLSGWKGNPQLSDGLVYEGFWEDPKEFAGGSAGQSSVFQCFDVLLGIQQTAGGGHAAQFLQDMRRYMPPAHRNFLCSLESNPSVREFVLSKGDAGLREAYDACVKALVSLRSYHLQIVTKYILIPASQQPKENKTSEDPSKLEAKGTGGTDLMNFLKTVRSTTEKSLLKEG

Row | pIC50 (IDO1 [1]) | pIC50 (IDO1 [2]) | Structure (SMILES)
1 | 9.05 | 6.48 | Cc1cccc(C2CCN(C(=O)Cn3nc(C(=O)N4CC[C@H](O)[C@@H](C)C4)c4c3C[C@H]3C[C@@H]43)CC2)c1C [Example 21, 1-[4-(2,3-dimethylphenyl)piperidin-1-yl]-2-{(3bR,4aR)-3-[(3S,4S)-4-hydroxy-3-methylpiperidine-1-carbonyl]-3b,4,4a,5-tetrahydro-1H-cyclopropa[3,4]cyclopenta[1,2-c]pyrazol-1-yl}ethan-1-one]
2 | 8.96 | 7.51 | Cc1cccc(C2CCN(C(=O)Cn3nc(C(=O)N4CCC(OCCO)CC4)c4c3CCC4)CC2)c1C [Example 33, 1-(4-(2,3-dimethylphenyl)piperidin-1-yl)-2-(3-(4-(2-hydroxyethoxy)piperidine-1-carbonyl)-5,6-dihydrocyclopenta[c]pyrazol-1(4H)-yl) ethanone]
3 | 8.96 | 6.53 | Cc1cccc(C2CCN(C(=O)Cn3nc(C(=O)N4C[C@@H](C)O[C@@H](C)C4)c4c3CCC4)CC2)c1C [Example 64, 2-(3-((2S,6R)-2,6-dimethylmorpholine-4-carbonyl)-5,6-dihydrocyclopenta [c]pyrazol-1(4H)-yl)-1-(4-(2,3-dimethylphenyl)piperidin-1-yl) ethanone]
4 | 8.46 | 6.36 | Cc1c(Cl)cccc1C1CCN(C(=O)Cn2nc(C(=O)N3C[C@@H](C)O[C@@H](C)C3)c3c2CCC3)CC1 [Example 82, 1-[4-(3-chloro-2-methylphenyl)piperidin-1-yl]-2-{3-[(2R,6S)-2,6-dimethylmorpholine-4-carbonyl]-5,6-dihydrocyclopenta[c]pyrazol-1(4H)-yl}ethan-1-one]
5 | 8.54 | 5.88 | Cc1cc(C2CCN(C(=O)Cn3nc(C(=O)N4C[C@@H](C)O[C@@H](C)C4)c4c3CCC4)CC2)ccc1Cl [Example 81, 1-[4-(4-chloro-3-methylphenyl)piperidin-1-yl]-2-{3-[(2R,6S)-2,6-dimethylmorpholine-4-carbonyl]-5,6-dihydrocyclopenta[c]pyrazol-1(4H)-yl}ethan-1-one]
6 | 7.95 | 5.47 | Cc1cccc(C2(F)CCN(C(=O)Cn3nc(C(=O)N4CCC(O)CC4)c4c3CCC4)CC2)c1C [Example 9, 1-(4-(2,3-dimethylphenyl)-4-fluoropiperidin-1-yl)-2-(3-(4-hydroxypiperidine-1-carbonyl)-5,6-dihydrocyclopenta[c]pyrazol-1(4H)-yl)ethanone]
7 | 8.43 | 6.52 | Cc1cccc(C2CCN(C(=O)Cn3nc(C(=O)N4CCN(C(=O)CO)CC4)c4c3CCCC4)CC2)c1C [Example 42, 1-(4-(2,3-dimethylphenyl)piperidin-1-yl)-2-(3-(4-(2-hydroxyacetyl)piperazine-1-carbonyl)-4,5,6,7-tetrahydro-1H-indazol-1-yl)ethanone]
8 | 8.19 | 6.57 | Cc1c(F)cccc1C1CCN(C(=O)Cn2nc(C(=O)N3C[C@@H](C)O[C@@H](C)C3)c3c2CCC3)CC1 [Example 173, 2-{3-[(2R,6S)-2,6-dimethylmorpholine-4-carbonyl]-5,6-dihydrocyclopenta[c]pyrazol-1(4H)-yl}-1-[4-(3-fluoro-2-methylphenyl)piperidin-1-yl]ethan-1-one]
9 | 8.38 | 5.73 | Cc1c(C2CCN(C(=O)Cn3nc(C(=O)N4C[C@@H](C)O[C@@H](C)C4)c4c3CCC4)CC2)cccc1C(F)(F)F [Example 83, 2-{3-[(2R,6S)-2,6-dimethylmorpholine-4-carbonyl]-5,6-dihydrocyclopenta[c]pyrazol-1(4H)-yl}-1-{4-[2-methyl-3-(trifluoromethyl)phenyl]piperidin-1-yl}ethan-1-one]
10 | 8.96 | 7.16 | Cc1cccc(C2CCN(C(=O)Cn3nc(C(=O)N4CC[C@@H](O)[C@@H](C)C4)c4c3C[C@H]3C[C@@H]43)CC2)c1C [Example 22, 1-[4-(2,3-dimethylphenyl)piperidin-1-yl]-2-{(3bR,4aR)-3-[(3S,4R)-4-hydroxy-3-methylpiperidine-1-carbonyl]-3b,4,4a,5-tetrahydro-1H-cyclopropa[3,4]cyclopenta[1,2-c]pyrazol-1-yl}ethan-1-one]
11 | 9.10 | 7.08 | Cc1cccc(C2CCN(C(=O)Cn3nc(C(=O)N4CC[C@H](O)[C@@H](F)C4)c4c3CCCC4)CC2)c1C [Example 32, 1-(4-(2,3-dimethylphenyl)piperidin-1-yl)-2-(3-((3S,4S)-3-fluoro-4-hydroxypiperidine-1-carbonyl)-4,5,6,7-tetrahydro-1H-indazol-1-yl) ethanone]
12 | 8.43 | 6.26 | Cc1cccc(C2CCN(C(=O)Cn3nc(C(=O)N4CC[C@H](O)[C@H](F)C4)c4c3CCC4)CC2)c1C (single isomer, unassigned) [Example 61, 1-(4-(2,3-dimethylphenyl)piperidin-1-yl)-2-(3-((3R,4S or 3S, 4R)-3-fluoro-4-hydroxypiperidine-1-carbonyl)-5,6-dihydrocyclopenta[c]pyrazol-1(4H)-yl)ethanone]
13 | 8.80 | 6.72 | Cc1cccc(C2CCN(C(=O)Cn3nc(C(=O)N4CC[C@@H](O)[C@@H](F)C4)c4c3C[C@H]3C[C@@H]43)CC2)c1C [Example 25, 1-[4-(2,3-dimethylphenyl)piperidin-1-yl]-2-{(3bR,4aR)-3-[(3S,4R)-3-fluoro-4-hydroxypiperidine-1-carbonyl]-3b,4,4a,5-tetrahydro-1H-cyclopropa[3,4]cyclopenta[1,2-c]pyrazol-1-yl}ethan-1-one]
14 | 8.80 | 7.29 | Cc1cccc(C2CCN(C(=O)Cn3nc(C(=O)N4CCC(O)(CF)CC4)c4c3CCCC4)CC2)c1C [Example 36, 1-(4-(2,3-dimethylphenyl)piperidin-1-yl)-2-(3-(4-(fluoromethyl)-4-hydroxypiperidine-1-carbonyl)-4,5,6,7-tetrahydro-1H-indazol-1-yl) ethanone]
15 | 8.89 | 6.66 | Cc1cccc(C2CCN(C(=O)Cn3nc(C(=O)N4CC[C@@H](O)[C@@H](F)C4)c4c3CCCC4)CC2)c1C [Example 35, 1-(4-(2,3-dimethylphenyl)piperidin-1-yl)-2-(3-((3S,4R)-3-fluoro-4-hydroxypiperidine-1-carbonyl)-4,5,6,7-tetrahydro-1H-indazol-1-yl) ethanone]
16 | 8.26 | 6.72 | Cc1cccc(C2CCN(C(=O)Cn3nc(C(=O)N4CCO[C@H](CO)C4)c4c3CCC4)CC2)c1C [Example 43, (S)-1-(4-(2,3-dimethylphenyl)piperidin-1-yl)-2-(3-(2-(hydroxymethyl)morpholine-4-carbonyl)-5,6-dihydrocyclopenta[c]pyrazol-1(4H)-yl) ethanone]
17 | 8.77 | 6.36 | Cc1c(F)ccc(C2CCN(C(=O)Cn3nc(C(=O)N4C[C@@H](C)O[C@@H](C)C4)c4c3CCC4)CC2)c1C [Example 172, 2-{3-[(2R,6S)-2,6-dimethylmorpholine-4-carbonyl]-5,6-dihydrocyclopenta[c]pyrazol-1(4H)-yl}-1-[4-(4-fluoro-2,3-dimethylphenyl)piperidin-1-yl]ethan-1-one]
18 | 8.74 | 7.07 | Cc1cccc(C2CCN(C(=O)Cn3nc(C(=O)N4CC[C@H](O)[C@@H](F)C4)c4c3CCC4)CC2)c1C [Example 37, 1-(4-(2,3-dimethylphenyl)piperidin-1-yl)-2-(3-((3S,4S)-3-fluoro-4-hydroxypiperidine-1-carbonyl)-5,6-dihydrocyclopenta[c]pyrazol-1(4H)-yl)ethanone]
